Laboratory results: patent publication US11046709B2, “Fused 1,4-diazepines as BET bromodomain inhibitors” (THE REGENTS OF THE UNIVERSITY OF MICHIGAN, priority 2017, dated 2021)
pIC50: −log10 of the molar value. Where two headings read alike, the source gives them in different places.

What was measured:
recombinant BRD4 BD1 = target: T1, recombinant BRD4 BD1 (Homo sapiens, UniProt O60885); test: Competitive fluorescence-polarization (FP) binding assay, BRD4 BD1
T1 construct: for recombinant BRD4 BD1 and BRD4 BD2 proteins

recombinant BRD4 BD2 = target: T2, recombinant BRD4 BD2 (Homo sapiens, UniProt O60885); test: Competitive fluorescence-polarization (FP) binding assay, BRD4 BD2
T2 construct: for recombinant BRD4 BD1 and BRD4 BD2 proteins

RS4;11 = test: Cell growth inhibition, 4-day proliferation assay, RS4;11; format: cell-based; details: Homo sapiens
Experimental: The effect of representative Compounds of the Disclosure on cell viability was determined in a 4-day proliferation assay. Cells were maintained in the appropriate culture medium with 100/0 FBS at 37° C. and an atmosphere of 5% CO2. All the cell lines were used within three months of thawing fresh vials.
In general, cells were seeded in 96-well flat bottom (Corning COSTAR, Corning, N.Y., cat #3595) or white opaque cell culture plates (BD Falcon, cat #353296) at a density of 3,000-10,000 cells/well in 75 μl of culture medium. Compounds were serially diluted in the appropriate medium, and 75 μl of the diluted compounds were added to the appropriate wells of the cell plate. After the addition of compounds, the cells were incubated at 37° C. in an atmosphere of 5% CO2 for 4 days. Cell viability was determined using the CellTiter-Glo® Luminescent Cell Viability Assay Kit (Promega, Madison, Wis.) for leukemia cells and WST (2-(2-methoxy-4-nitrophenyl)-3-(4-nitrophenyl)-5-(2,4-disulfophenyl)-2H-tetrazolium, monosodium salt) Cell Counting-8 Kit (Dojindo Molecular Technologies, Inc., Rockville, Md.) for adherent cells according to the manufacturers' instructions.
For WST assay (adherent cells), WST-8 reagent was added to each well at a final concentration of 10% (v/v), and then the plates were incubated at 37° C. for 1-2 hours for color development. The absorbance was measured at 450 nm using a SPECTRAmax PLUS plate reader (Molecular Devices, Sunnyvale, Calif.). The readings were normalized to the DMSO-treated cells and the half maximal inhibitory concentration (IC50) was calculated by nonlinear regression (four parameters sigmoid fitted with variable slope, least squares fit, and no constraint) analysis using the GraphPad Prism 5 software (GraphPad Software, La Jolla, Calif.).
For CellTiter-Glo assay (suspension cells), 100 μl of CellTiter-Glo® Reagent was added to each well, and then the plates were incubated at room temperature for 10-20 minutes. The luminescent signal was measured using a Tecan Infinite M1000 multimode microplate reader (Tecan, Morrisville, N.C.). The readings were normalized to the DMSO-treated cells and the IC50 was calculated by nonlinear regression (four parameters sigmoid fitted with variable slope, least squares fit, and no constraint) analysis using the GraphPad Prism 5 software. See US 2014/0256706.
For a number of representative compounds in Table 5, their IC50 values in cell growth inhibition activity in the RS4;11 and MOLM-13 human leukemia cell lines and the MDA-MB-231 breast cancer cell line were evaluated using the WST-8 assay described in EXAMPLE 7, with the data shown in Table 7.

MOLM-13 = test: Cell growth inhibition, 4-day proliferation assay, MOLM-13; format: cell-based; details: Homo sapiens
MDA-MB-231 = test: Cell growth inhibition, 4-day proliferation assay, MDA-MB-231; format: cell-based; details: Homo sapiens
In short: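 Cells seeded at 3,000-10,000/well, treated with serially diluted compounds 4 days at 37 °C, 5% CO2. Viability by WST-8 (10% v/v, 1-2 h, A450); readings normalized to DMSO-treated cells, IC50 by four-parameter nonlinear regression.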

BRD2 BD1 = BRD2 BD1 (Homo sapiens, UniProt P25440); test: Competitive FP binding assay, BRD2 BD1; details: Table 8, read-out: IC50 (nM) in FP assays BRD2 BD1
BRD2 BD1, sequence (P25440 74-180 limits assumed): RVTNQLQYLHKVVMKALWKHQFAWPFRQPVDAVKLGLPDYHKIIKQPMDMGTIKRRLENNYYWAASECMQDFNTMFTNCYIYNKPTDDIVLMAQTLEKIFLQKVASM
Experimental: (§1) Fluorescence Polarization (FP) competitive binding studies were carried out using a FAM labeled fluorescent probe, see, e.g., Cpd. No. 350 of US 2014/0256706, to determine binding affinities of representative Compounds of the Disclosure for recombinant BRD4 BD1 and BRD4 BD2 proteins. Equilibrium dissociation constants (Kd) values of the fluorescent probe to BRD4 BD1 and BD2 proteins were determined from protein saturation experiments by monitoring the total fluorescence polarization of mixtures composed with the fluorescent probe at a fixed concentration and proteins with increasing concentrations up to full saturation. Serial dilutions of testing proteins were mixed with the fluorescent probe to a final volume of 200 μl in the assay buffer (100 mM phosphate buffer, pH=6.5, 0.01% Triton X-100 (Sigma, 282103) being added right before assays). Final fluorescent probe concentration was 1.5 nM for both proteins. Plates were incubated at room temperature for 30 minutes with gentle shaking to assure equilibrium. FP values in millipolarization units (mP) were measured using the Infinite M-1000 plate reader (Tecan U.S., Research Triangle Park, N.C.) in Microfluor 1 96-well, black, round-bottom plates (Thermo Scientific, Waltham, Mass.) at an excitation wavelength of 485 nm and an emission wavelength of 530 nm. Kd values of the fluorescent probe, which were calculated by fitting the sigmoidal dose-dependent FP increases as a function of protein concentrations using Graphpad Prism 6.0 software (Graphpad Software, San Diego, Calif.), are 5.5 and 3.0 nM to BDR4 BD1 and 2, respectively.
(§2) The IC50 and Ki values of compounds were determined in a competitive binding experiment. See US 2014/0256706. Mixtures of 10 μl of the tested compounds in assay buffer with 40% Ethylene Glycol and 190 μl of preincubated protein/probe complex solution in the assay buffer (100 mM potassium phosphate, pH 6.5, 0.01% Triton X-100) were added into assay plates which were incubated at room temperature for 30 minutes with gentle shaking. Final concentrations of proteins were 10 and 6 nM in assays for BRD4 BD1 and BD2, respectively. Final probe concentration is 1.5 nM in both assays. […] FP values were measured as described above. IC50 values were determined by nonlinear regression fitting of the competition curves. Instead of being calculated from IC50 values as described before. […]
(§3) For several representative compounds in Table 5, their binding affinities to BRD2 BD1 and BD2 proteins, and BRD3 BD1 and BD2 proteins were determined using the Competitive Fluorescence-Polarization (FP) Assays described in Example 6, with the data included in Table 8.

BRD2 BD2 = BRD2 BD2 (Homo sapiens, UniProt P25440); test: Competitive FP binding assay, BRD2 BD2; details: Table 8, read-out: IC50 (nM) in FP assays BRD2 BD2
BRD2 BD2, sequence (P25440 344-453 limits assumed): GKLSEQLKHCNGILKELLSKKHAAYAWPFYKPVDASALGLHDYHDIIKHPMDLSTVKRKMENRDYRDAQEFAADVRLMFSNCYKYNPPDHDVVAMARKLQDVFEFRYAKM
Experimental: as §1, §2, §3

BRD3 BD1 = BRD3 BD1 (Homo sapiens, UniProt Q15059); test: Competitive FP binding assay, BRD3 BD1; details: Table 8, read-out: IC50 (nM) in FP assays BRD3 BD1
BRD3 BD1, sequence (Q15059 34-140 limits assumed): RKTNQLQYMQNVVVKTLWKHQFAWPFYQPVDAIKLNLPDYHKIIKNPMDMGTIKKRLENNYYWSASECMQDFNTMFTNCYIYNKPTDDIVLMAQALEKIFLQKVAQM
Experimental: as §1, §2, §3

BRD3 BD2 = BRD3 BD2 (Homo sapiens, UniProt Q15059); test: Competitive FP binding assay, BRD3 BD2; details: Table 8, read-out: IC50 (nM) in FP assays BRD3 BD2
BRD3 BD2, sequence (Q15059 306-415 limits assumed): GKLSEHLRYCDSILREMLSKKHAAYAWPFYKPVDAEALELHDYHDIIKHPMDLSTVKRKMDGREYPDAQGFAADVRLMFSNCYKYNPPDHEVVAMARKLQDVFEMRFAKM
Experimental: as §1, §2, §3

[1] = Plasma exposure after oral gavage in mice, LC-MS/MS; format: in vivo; details: mouse, plasma, mice, oral gavage 25 mg/kg; for concentration at 1 h: read-out: Plasma concentration (ng/mL) 1 h; for concentration at 3 h: read-out: Plasma concentration (ng/mL) 3 h; for concentration at 6 h: read-out: Plasma concentration (ng/mL) 6 h
Experimental: For a number of representative compounds in Table 5, their plasma exposures with oral administration in mice via oral gavage were determined by LC-MS/MS, with the data shown in Table 9.

[2] = competitive FP, Table 6, read-out: IC50 as determinined in FP assays BRD4 BD1
[3] = competitive FP, Table 6, read-out: IC50 as determinined in FP assays BRD4 BD2
[4] = RS4-11, WST-8 assay, Table 7, read-out: Cell growth inhibition (IC50 (nM)) RS4;11
[5] = MOLM-13, WST-8 assay, Table 7, read-out: Cell growth inhibition (IC50 (nM)) MOLM-13
[6] = RS4-11, 96 h, read-out: Cell IC50 (nM) RS4;11

| Compound | pIC50 (recombinant BRD4 BD1; [2]) | pIC50 (recombinant BRD4 BD2; [3]) | IC50 (RS4;11; [4]) | IC50 (MOLM-13; [5]) | IC50 (MDA-MB-231; MDA-MB-231, WST-8 assay, Table 7, read-out: Cell growth inhibition (IC50 (nM)) MDA-MB-231) | IC50 (BRD2 BD1) | IC50 (BRD2 BD2) | IC50 (BRD3 BD1) | IC50 (BRD3 BD2) | concentration at 1 h [1] | concentration at 3 h [1] | concentration at 6 h [1] | pIC50 (recombinant BRD4 BD1) | pIC50 (recombinant BRD4 BD2) | IC50 (RS4;11; [6]) | IC50 (MOLM-13; MOLM-13, 96 h, read-out: Cell IC50 (nM) MOLM13) | IC50 (MDA-MB-231; MDA-MB-231, 96 h, read-out: Cell IC50 (nM) MDA-MB-231) |
| --- | --- | --- | --- | --- | --- | --- | --- | --- | --- | --- | --- | --- | --- | --- | --- | --- | --- |
| Cc1nnc(C[C@@H]2N=C(c3ccc(Cl)cc3)c3c(sc(C#CC4CCOCC4)c3C)-n3c(C)nnc32)o1 [Compound 145, (S)-2-((4-(4-chlorophenyl)-3,9-dimethyl-2-((tetrahydro-2H-pyran-4-yl)ethynyl)-6H-thieno[3,2-f][1,2,4]triazolo[4,3-a][1,4]diazepin-6-yl)methyl)-5-methyl-1,3,4-oxadiazole] | 7.79 | 7.32 | 13.3 nM | 11.3 nM | 105 nM | 26 nM | 50.7 nM | 38.6 nM | 161 nM | 6620 ng/mL | 4880 ng/mL | 629 ng/mL |  |  |  |  |  |
| Cc1c(C#CC2CCOCC2)sc2c1C(c1ccc(Cl)cc1)=N[C@@H](CC(=O)N1CCC(C)(O)CC1)c1nnc(C)n1-2 [Compound 157, (S)-2-(4-(4-chlorophenyl)-3,9-dimethyl-2-((tetrahydro-2H-pyran-4-yl)ethynyl)-6H-thieno[3,2-f][1,2,4]triazolo[4,3-a][1,4]diazepin-6-yl)-1-(4-hydroxy-4-methylpiperidin-1-yl)ethan-1-one] | 7.26 | 7.30 | 37 nM | 25.4 nM |  | 39.3 nM | 146 nM | 85.1 nM | 120 nM | 4630 ng/mL | 3760 ng/mL | 1190 ng/mL |  |  |  |  |  |
| Cc1c(C#CC2CCOCC2)sc2c1C(c1ccc(Cl)cc1)=N[C@@H](CC(=O)N1CC(C)(O)C1)c1nnc(C)n1-2 [Compound 158, (S)-2-(4-(4-chlorophenyl)-3,9-dimethyl-2-((tetrahydro-2H-pyran-4-yl)ethynyl)-6H-thieno[3,2-f][1,2,4]triazolo[4,3-a][1,4]diazepin-6-yl)-1-(3-hydroxy-3-methylazetidin-1-yl)ethan-1-one] | 7.32 | 7.16 | 43 nM | 24.5 nM |  | 40.2 nM | 182 nM | 63.7 nM | 220 nM | 3380 ng/mL | 1810 ng/mL | 946 ng/mL |  |  |  |  |  |
| Cc1c(C#CC2CCOCC2)sc2c1C(c1ccc(Cl)cc1)=N[C@@H](CC(=O)N1CCC(O)CC1)c1nnc(C)n1-2 [Compound 159, (S)-2-(4-(4-chlorophenyl)-3,9-dimethyl-2-((tetrahydro-2H-pyran-4-yl)ethynyl)-6H-thieno[3,2-f][1,2,4]triazolo[4,3-a][1,4]diazepin-6-yl)-1-(4-hydroxypiperidin-1-yl)ethan-1-one] | 7.44 | 7.32 | 39.5 nM | 35.4 nM |  | 34.4 nM | 143 nM | 76.5 nM | 127 nM | 3460 ng/mL | 2120 ng/mL | 1700 ng/mL |  |  |  |  |  |
| Cc1c(C#Cc2cnn(C)c2)sc2c1C(c1ccc(Cl)cc1)=NCc1nnc(C)n1-2 [compound 23, 4-(4-chlorophenyl)-3,9-dimethyl-2-((1-methyl-1H-pyrazol-4-yl)ethynyl)-6H-thieno[3,2-f][1,2,4]triazolo[4,3-a][1,4]diazepine] |  |  |  |  |  |  |  |  |  |  |  |  | 7.84 | 7.20 | > 100 nM | > 100 nM |  |
| Cc1c(C#Cc2ccc3[nH]ncc3c2)sc2c1C(c1ccc(Cl)cc1)=NCc1nnc(C)n1-2 [compound 41, 2-((1H-indazol-5-yl)ethynyl)-4-(4-chlorophenyl)-3,9-dimethyl-6H-thieno[3,2-f][1,2,4]triazolo[4,3-a][1,4]diazepine] |  |  |  |  |  |  |  |  |  |  |  |  |  |  | 278 nM |  | 680 nM |
